According to publication PMC6346587, “Glucose 6-phosphate dehydrogenase 6-phosphogluconolactonase: characterization of the Plasmodium vivax enzyme and inhibitor studies” (Malaria Journal, 2019):

How the values were obtained:
recombinant hGrx1-roGFP2 = molecular target: T1, recombinant hGrx1-roGFP2 (Homo sapiens, UniProt P35754); test: In vitro interaction with recombinant hGrx1-roGFP2 probe; assay type: biochemical; conditions: at the concentrations used in this study
T1 construct: made in house
Description: The sensor hGrx1–roGFP2 (human glutaredoxin 1-reduction–oxidation sensitive green fluorescent protein 2) was recently transiently expressed in 3D7 P. falciparum parasites by using the pARL1a(+) expression vector. Heterologous overexpression of hGrx1–roGFP2 for the evaluation of the in vitro interactions of ML304 and anti-malarial drugs with the recombinant redox probe was performed according to [35].
ML304 was used at concentrations of 10 nM to 1 mM in degassed standard reaction buffer (100 mM potassium phosphate, 1 mM EDTA, pH 7.0). […] The characterization of the in vitro interaction of hGrx1–roGFP2 with ML304 was performed according to Schuh et al..

[1] = system: P. falciparum 3D7[hGrx1-roGFP2] cytosolic glutathione-dependent redox potential; test: Cytosolic glutathione redox sensor hGrx1-roGFP2, confocal live cell imaging (CLSM); assay type: cell-based, Plasmodium falciparum; conditions: 24 h incubation, approximately 4 × EC50
Description: A Leica confocal system TCS SP5 inverted microscope equipped with the objective HCX PL APO 63.0 × 1.30 GLYC 37 °C UV connected to a 37 °C temperature chamber was used. The argon laser power was set to 20%; scanning was performed at 400 Hz frequency and at a 512 × 512 pixel resolution. The smart gain and smart offset were 950 V and −0.9%, respectively. With a sequential scan, the hGrx1–roGFP2 probe was excited at 405 nm and at 488 nm and emission was detected at 500–550 nm. Laser intensity was adjusted to match the full dynamic range of the probe to the dynamic range of the detector (405 nm: 10%, 488 nm: 4%). […] The Leica LAS AF Lite software for fluorescence analysis was used. The 405/488 nm ratio was calculated. The graphs were plotted using the GraphPad Prism 5 software (San Diego, CA, USA). For live cell imaging, only parasites showing fluorescent signals at both 405 and 488 nm excitation and an intact host cell were chosen.
The effect of ML304 and the anti-malarial drugs ATS and CQ as reference drugs on P. falciparum were investigated in 4 h and 24 h incubation experiments. […] For 4 h experiments, trophozoite stage parasites (26–30 h) of 3D7^[hGrx1–roGFP2] and NF54^[hGrx1–roGFP2] (6–8% parasitaemia) were magnetically enriched (Miltenyi Biotec, Germany), counted by using a Neubauer hemocytometer (Brand GmbH, Germany), and returned to cell culture (at 2.0 × 10^4 trophozoites μL^−1) for at least 1 h to recover. 1.0 × 10^6 cells in 100 μL cell culture medium were placed into LoBind tubes (Eppendorf, Hamburg, Germany) for 4 h incubation experiments. The parasites were treated with ML304 at 1 μM, 50 μM, and 100 μM, or with the anti-malarial drugs ATS and CQ at approximately 50 × EC50 for 4 h under cell culture conditions. Subsequently, free thiol groups were blocked with 2 mM N-ethylmaleimide (NEM) for 15 min at 37 °C. For 24 h experiments, a 5 mL culture (5% haematocrit, 6–8% parasitaemia) of ring stage parasites (6–10 h post invasion) was treated with ML304 at 1 μM, 5 μM, and 10 μΜ, or the anti-malarial drugs ATS and CQ at approximately 4 × EC50. Prior to enrichment, cysteines were blocked with 2 mM NEM for 15 min at 37 °C. For 4 h and 24 h experiments, cells were washed after incubation and resuspended in Ringer’s solution (122.5 mM NaCl, 5.4 mM KCl, 1.2 mM CaCl2, 0.8 mM MgCl2, 11 mM D-glucose, 25 mM HEPES, 1 mM NaH2PO4, pH 7.4). 50 μL of cells (1.0 × 10^6 cells 50^−1 μL^−1) were seeded onto poly-L-lysine-coated μ-Slides 18 well (flat) (Ibidi, Martinsried, Germany) and measured using CLSM (confocal laser scanning microscopy) with excitation wavelengths at 405 nm and 488 nm. […] Each experiment was carried out three times. Between 10 and 20 microscopy images were taken each time, resulting in at least 30 experimental values per concentration and incubation time. The obtained ratio values were normalized to the control value, which was set to 100. All experiments were carried out within 6 weeks after the appearance of transfectants. Mean and standard error of the mean (SEM) are shown. A one-way ANOVA test with 95% confidence intervals with the Dunnett’s multiple comparison test (GraphPad Prism 5.0) was applied for statistical analysis of significance (*p < 0.05; **p < 0.01; ***p < 0.001).

P. falciparum 3D7 = conditions: determined previously; cited from earlier work
P. falciparum strains = conditions: cited from earlier work
PvG6PD = PvG6PD (Plasmodium vivax, UniProt A5K3M1); test: PvG6PD enzyme inhibition assay (NADPH formation, absorbance 340 nm / fluorescence); assay type: biochemical; conditions: for Type of inhibition of PvG6PD: with respect to both G6P and NADP+
Description: The G6PD activity of PfGluPho variants was measured spectrophotometrically as described for the wt enzyme. Kinetic characterization of PvG6PD was performed using the same assay system at an Evolution 300 spectrophotometer (Thermo Scientific, Dreieich, Germany). In brief, the initial reduction of NADP^+ to NADPH by PvG6PD was monitored by measuring the absorbance at 340 nm. The 500 µL reaction mixture contained 200 µM NADP^+ and varying concentrations of PvG6PD in an assay buffer of 100 mM Tris–HCl, pH 8.0, 10 mM MgCl2, and 0.5 mM EDTA at 25 °C. The reaction was started by adding 800 µM G6P. The KM for NADP^+ was determined by titrating NADP^+ from 2 to 400 µM at 800 µM G6P; the KM for G6P was measured accordingly by titrating G6P from 2 to 1200 µM at 200 µM NADP^+. KM values were calculated using GraphPad Prism. Since the KM for G6P was considerably higher than the value measured for PfGluPho [14], a concentration of 800 µM G6P was defined as substrate saturation for PvG6PD.
To identify potential inhibitors of PvG6PD, compounds with already known effects on PfGluPho (ellagic acid and derivatives, ML304) were tested. Additionally, several compound libraries of the Helmholtz Center for Infection Research, Brunswick, were screened against PfGluPho using the high-throughput-compatible assay systems described in Preuss et al.. […] Based on structure-activity relationship studies, a set of new potential G6PD inhibitors (Fig. 8) was then synthesized and assessed. First, the IC50 values of the compounds were determined, followed by mechanistic characterization of the mode of action. To test for selectivity of the compounds, the IC50 values of the compounds on PvG6PD, PfGluPho, and hG6PD were determined in parallel.
All measurements were performed in 96-well plates, half area (Greiner Bio-One, Frickenhausen, Germany) using a Tecan Infinite M200 plate reader (Maennedorf, Switzerland). The compounds were dissolved in 100% DMSO and afterwards diluted in assay buffer to the required concentrations. Different compound concentrations were added to a mixture of enzyme and NADP^+ in assay buffer. Concentrations of substrates differed depending on the enzyme; an overview is given in the Additional file 4. The reaction was started by adding G6P, and the increase of NADPH was monitored by measuring the absorbance at 340 nm. To increase the sensitivity of the assay, some measurements were reproduced, detecting the fluorescence of NADPH at ex340/em460. […] A negative control containing no compound was defined as 0% inhibition; a positive control lacking the substrate G6P was defined as 100% inhibition. For evaluations using GraphPad Prism and Microsoft Excel, only a linear increase in absorbance/fluorescence was considered. For the mechanistic characterization of the compounds, either NADP^+ or G6P were titrated at different compound concentrations around the IC50, while keeping the second substrate in saturation. The initial slope was plotted as Michaelis–Menten curves and Lineweaver–Burk plots using GraphPad Prism; KM values and Vmax were calculated with GraphPad Prism software.

[2] = system: Plasmodium yoelii strain overproducing GSH; parameters: method as in PMID 23029306; conditions: cited from earlier work
[3] = cited from earlier work
PfGluPho = molecular target: T2, PfGluPho (Plasmodium falciparum, UniProt Q8IKU0); conditions: cited from earlier work
T2 construct: made in house
T2 sequence (Q8IKU0 1-910): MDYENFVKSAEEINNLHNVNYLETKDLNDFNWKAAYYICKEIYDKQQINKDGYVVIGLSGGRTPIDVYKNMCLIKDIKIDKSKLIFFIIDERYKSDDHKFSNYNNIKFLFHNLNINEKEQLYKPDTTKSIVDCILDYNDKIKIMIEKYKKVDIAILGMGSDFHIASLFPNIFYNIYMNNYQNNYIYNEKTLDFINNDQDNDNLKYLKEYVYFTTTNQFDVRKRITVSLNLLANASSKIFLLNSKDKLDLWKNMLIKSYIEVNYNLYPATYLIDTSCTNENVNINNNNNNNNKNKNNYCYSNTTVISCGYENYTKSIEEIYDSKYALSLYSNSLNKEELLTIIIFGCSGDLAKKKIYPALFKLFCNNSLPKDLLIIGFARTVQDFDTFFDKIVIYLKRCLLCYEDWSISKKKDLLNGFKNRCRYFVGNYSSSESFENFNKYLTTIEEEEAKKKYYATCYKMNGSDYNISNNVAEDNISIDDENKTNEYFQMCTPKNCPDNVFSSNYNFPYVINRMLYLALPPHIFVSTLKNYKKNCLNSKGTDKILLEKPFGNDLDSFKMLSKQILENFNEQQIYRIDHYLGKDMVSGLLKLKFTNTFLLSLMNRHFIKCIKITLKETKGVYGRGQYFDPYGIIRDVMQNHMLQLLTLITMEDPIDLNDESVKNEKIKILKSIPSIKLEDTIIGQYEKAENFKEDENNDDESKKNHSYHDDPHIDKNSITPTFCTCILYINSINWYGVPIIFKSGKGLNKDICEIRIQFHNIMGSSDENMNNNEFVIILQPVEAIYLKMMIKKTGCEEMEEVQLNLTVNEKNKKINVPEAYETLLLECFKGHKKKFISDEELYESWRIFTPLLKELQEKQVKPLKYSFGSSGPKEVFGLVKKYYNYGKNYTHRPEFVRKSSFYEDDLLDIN

hG6PD = molecular target: T3, hG6PD (Homo sapiens, UniProt P11413); conditions: ellagic acid; read-out: IC50 for hG6PD; cited from earlier work
T3 construct: made in house

[4] = molecular target: PfPrx1a (Plasmodium falciparum); test: non-reducing SDS-PAGE with western blot; recombinant PfPrx1a (positive control) after incubation with GSSG, SDS-PAGE without DTT, anti-glutathione western blot and Ponceau staining
[5] = molecular target: the molecule itself; test: SEC; gel filtration chromatography of purified PvG6PD under reducing conditions; single peak of approximately 389 kDa

T3 sequence (P11413 whole entry): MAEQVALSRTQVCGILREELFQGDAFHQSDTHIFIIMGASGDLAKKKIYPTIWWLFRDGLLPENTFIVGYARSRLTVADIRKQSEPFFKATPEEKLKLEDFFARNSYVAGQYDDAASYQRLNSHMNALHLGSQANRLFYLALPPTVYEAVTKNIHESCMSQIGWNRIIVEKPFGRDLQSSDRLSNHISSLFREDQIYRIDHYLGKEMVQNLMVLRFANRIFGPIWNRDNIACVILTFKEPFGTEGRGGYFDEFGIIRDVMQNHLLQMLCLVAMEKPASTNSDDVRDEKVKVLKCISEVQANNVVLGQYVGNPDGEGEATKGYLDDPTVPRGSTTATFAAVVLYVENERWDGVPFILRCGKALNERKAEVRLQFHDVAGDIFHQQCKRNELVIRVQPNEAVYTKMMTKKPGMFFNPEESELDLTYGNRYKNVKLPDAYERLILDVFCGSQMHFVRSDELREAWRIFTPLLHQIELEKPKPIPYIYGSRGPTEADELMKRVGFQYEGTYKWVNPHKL

Question: Which “Direct interaction with recombinantly purified hGrx1-roGFP2 probe” value (recombinant hGrx1-roGFP2) does the source give for C[C@@H]1CC[C@H]2[C@@H](C)C(=O)O[C@@H]3O[C@@]4(C)CC[C@@H]1[C@]32OO4 [ATS, artemisinin] here?
Answer: Its value is “excluded a direct interaction”.

Question: What about the “Increase of redox ratio (405/488 nm)” value [1] of the same molecule?
Answer: The value was “hardly affected”.

Question: And the EC50 (P. falciparum 3D7)?
Answer: The EC50 was 4.4 nM.

Question: Which results are given for CCN(CC)CCCC(C)Nc1ccnc2cc(Cl)ccc12 (stereo not drawn) [CQ, chloroquine]?
Answer: Direct interaction with recombinantly purified hGrx1-roGFP2 probe (recombinant hGrx1-roGFP2): excluded a direct interaction; Increase of redox ratio (405/488 nm) [1]: 1.5 fold; EC50 (P. falciparum 3D7): 8.6 nM

Question: What does the source list for O=c1oc2c(O)c(O)cc3c(=O)oc4c(O)c(O)cc1c4c23 [ellagic acid]?
Answer: Interaction with chloroquine, atovaquone, mefloquine, and artesunate (P. falciparum strains): synergistic effects; IC50 (PvG6PD): 32.5 ± 13.4 nM; Type of inhibition of PvG6PD (PvG6PD): mixed type inhibitor; Type of inhibition of PvG6PD (PvG6PD; listed as EA): mixed type inhibition; Sensitivity of GSH-overproducing P. yoelii strain versus wt [2]: five times less sensitive; Haemolytic effects ([3]; mice): no observable haemolytic effects; Overall toxicity in mice ([3]; mouse, in vivo): low; IC50 (PfGluPho; ellagic acid, read-out: IC50 on PfGluPho): 77 ± 22 nM; Type of inhibition of PfGluPho (PfGluPho; with respect to both G6P and NADP+): mixed type inhibition; IC50 (hG6PD): 102 ± 39 nM

Question: With PfPrx1a (enzyme) as the molecule, how does the stoichiometry N [4] read?
Answer: Its stoichiometry N is 2.

B1: Plasmodium vivax glucose 6-phosphate dehydrogenase (PvG6PD), C-terminal part (aa 310-927) of PvGluPho (domain or fragment, UniProt A5K3M1 310-927, looked up)
chain: LNRRECLTIIVFGCSGDLAKKKIYPAIFKLFCNKRLPKDLLIVGFARTAQSFDSFFDKIVGYLKRCLHSYEDLSLTQKKDLLNCFKNKCRYYIGDYSSSESFERFNKYLTQLERENLIGTAPTSWAAAAGNASFANDTDKVEHHPDEAILAKGTGAATPGEAPGGANGPATHGEAHGGANGLSTPMQGKAVPTDDTSDEGHSGANHPFAINRILYLALPPHIFVSTLKNYKKNCQNGNGTDKILLEKPFGKDLQTFKVLSKQILENFNEEHIYRIDHYLGKDMVSGLLKLKFTNTFLLSLMNRHFIKCIKITLKETKGVYGRGQYFDPYGIIRDVMQNHMLQLLALITMEDPIDLNDESVKNEKIKILKCIQSIKLDNTIIGQYVKSENYQEEKNLSAPPSDDHPVDESKRNHSYHDDPHIDSNSITPTFCTCILYINSINWYGVPIIFKAGKGLNKDICEIRLQFHNIMGSSDESMYNNEFVIILQPVEVIYLKMMIKKTGCEEMEEVQLNLTVNHKNKKNYVPEAYETLLLECFRGFKKKFISDEELYESWRIFTPLLNELQEKKVQPLKYPFGSSGPKEVYDLVKKYYNYGKNYANTPAFVRKSSFYEDDLLDIN
notes: glucose 6-phosphate dehydrogenase 6-phosphogluconolactonase (PvGluPho) of Plasmodium vivax, PlasmoDB PVX_117790; G6PD part, aa 310-927 (bp 930-2784); Calculated mass of the His-tagged protein 71.9 kDa; also called P. vivax G6PD; source: E. coli M15 with pRAREII (pQE30 vector), purified (Ni-NTA, size exclusion chromatography); not shown: His6, N-terminal, kept
Question: With B1 as the molecule, how does the “stoichiometry N” value [5] read?
Answer: The value was 6.
